According to ChEMBL document CHEMBL1201862, “PubChem BioAssay data set” (2004):
The source made the active and inactive calls.

Legend:
[1] = biological target: T1, Low molecular weight phosphotyrosine protein phosphatase (Homo sapiens, UniProt P24666); test: LMPTP phosphatase inhibitors, dose response, biochemical, OMFP substrate, fluorescence intensity, set 2 (AID 743307); format: functional
T1 sequence (P24666 whole entry): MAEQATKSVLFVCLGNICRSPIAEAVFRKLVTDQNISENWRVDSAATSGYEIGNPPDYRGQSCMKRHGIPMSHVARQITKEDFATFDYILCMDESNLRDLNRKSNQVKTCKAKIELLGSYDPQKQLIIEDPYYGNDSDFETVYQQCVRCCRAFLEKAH

[2] = biological target: T1, Low molecular weight phosphotyrosine protein phosphatase; test: LMPTP phosphatase inhibitors, colorimetric pNPP readout, dose response, orthogonal assay, biochemical, absorbance, pNPP substrate, LMPTP-A isoform, set 2 (AID 743308); format: functional
CHO = test: cytotoxicity in TLR9-MyD88 CHO cells, dose response, cytotoxicity control for TLR9-MyD88 binding inhibitor project, cell-based, luminescence (AID 588339); format: functional, hamster; details: Cricetulus griseus;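 note: CHO cells stably coexpressing TLR9 and MyD88 fusions from primary screen; compound exposure lasted 48 hours before viability readout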
[3] = THP-1 cell cytotoxicity, dose response, cytotoxicity control for Vif-APOBEC3G degradation inhibitor project, THP-1 cells (AID 1117359); format: functional; details: Human immunodeficiency virus 1, THP-1
Beta Lactamase = Beta Lactamase (Pseudomonas aeruginosa, UniProt Q932Y6); test: beta-lactamase reporter inhibitor potency, dose response, artefact control for TLR9-MyD88 binding inhibitor project, BLA reporter cells, FRET fluorescence (AID 588341); format: cell-based;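 note: cell based assay in CHO-K1 cells stably expressing beta-lactamase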
Hexokinase HKDC1 = biological target: T2, Hexokinase HKDC1 (Homo sapiens, UniProt Q2TB90); test: HKDC1 hexokinase inhibitors, dose response, biochemical, W721R variant (AID 504729); format: functional
T2 sequence (Q2TB90 whole entry): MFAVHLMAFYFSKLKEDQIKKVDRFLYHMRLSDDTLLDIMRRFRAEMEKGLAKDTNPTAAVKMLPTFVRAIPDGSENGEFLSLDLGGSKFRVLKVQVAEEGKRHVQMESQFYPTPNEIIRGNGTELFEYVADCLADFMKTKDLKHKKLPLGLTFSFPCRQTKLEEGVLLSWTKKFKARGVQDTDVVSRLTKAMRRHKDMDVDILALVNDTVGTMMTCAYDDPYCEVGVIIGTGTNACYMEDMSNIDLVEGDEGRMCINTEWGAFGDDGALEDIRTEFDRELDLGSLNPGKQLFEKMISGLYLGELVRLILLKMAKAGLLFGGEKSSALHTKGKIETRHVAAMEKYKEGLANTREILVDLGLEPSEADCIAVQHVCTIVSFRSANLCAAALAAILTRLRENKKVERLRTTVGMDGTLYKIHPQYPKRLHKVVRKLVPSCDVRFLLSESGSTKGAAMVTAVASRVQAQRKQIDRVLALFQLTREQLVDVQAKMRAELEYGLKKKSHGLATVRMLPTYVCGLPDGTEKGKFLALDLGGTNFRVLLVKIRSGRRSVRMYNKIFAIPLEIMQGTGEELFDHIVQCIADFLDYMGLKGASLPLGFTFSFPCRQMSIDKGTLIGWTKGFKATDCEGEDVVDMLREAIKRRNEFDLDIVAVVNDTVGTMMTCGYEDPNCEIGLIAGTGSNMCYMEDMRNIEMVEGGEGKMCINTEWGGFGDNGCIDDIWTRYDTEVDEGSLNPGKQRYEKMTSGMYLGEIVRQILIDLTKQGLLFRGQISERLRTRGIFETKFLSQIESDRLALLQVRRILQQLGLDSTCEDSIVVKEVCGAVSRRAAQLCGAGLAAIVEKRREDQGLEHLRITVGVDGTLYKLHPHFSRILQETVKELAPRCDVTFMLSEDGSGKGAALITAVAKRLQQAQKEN

Genome polyprotein = Genome polyprotein (dengue virus type 2, UniProt P29990); test: Dengue-2 NS5 methyltransferase inhibitors, primary screen, biochemical, confirmation dose response (AID 588689); format: functional
[4] = biological target: T3, Histone-lysine N-methyltransferase NSD2 (Homo sapiens, UniProt O96028); format: biochemical
T3 sequence (O96028 whole entry): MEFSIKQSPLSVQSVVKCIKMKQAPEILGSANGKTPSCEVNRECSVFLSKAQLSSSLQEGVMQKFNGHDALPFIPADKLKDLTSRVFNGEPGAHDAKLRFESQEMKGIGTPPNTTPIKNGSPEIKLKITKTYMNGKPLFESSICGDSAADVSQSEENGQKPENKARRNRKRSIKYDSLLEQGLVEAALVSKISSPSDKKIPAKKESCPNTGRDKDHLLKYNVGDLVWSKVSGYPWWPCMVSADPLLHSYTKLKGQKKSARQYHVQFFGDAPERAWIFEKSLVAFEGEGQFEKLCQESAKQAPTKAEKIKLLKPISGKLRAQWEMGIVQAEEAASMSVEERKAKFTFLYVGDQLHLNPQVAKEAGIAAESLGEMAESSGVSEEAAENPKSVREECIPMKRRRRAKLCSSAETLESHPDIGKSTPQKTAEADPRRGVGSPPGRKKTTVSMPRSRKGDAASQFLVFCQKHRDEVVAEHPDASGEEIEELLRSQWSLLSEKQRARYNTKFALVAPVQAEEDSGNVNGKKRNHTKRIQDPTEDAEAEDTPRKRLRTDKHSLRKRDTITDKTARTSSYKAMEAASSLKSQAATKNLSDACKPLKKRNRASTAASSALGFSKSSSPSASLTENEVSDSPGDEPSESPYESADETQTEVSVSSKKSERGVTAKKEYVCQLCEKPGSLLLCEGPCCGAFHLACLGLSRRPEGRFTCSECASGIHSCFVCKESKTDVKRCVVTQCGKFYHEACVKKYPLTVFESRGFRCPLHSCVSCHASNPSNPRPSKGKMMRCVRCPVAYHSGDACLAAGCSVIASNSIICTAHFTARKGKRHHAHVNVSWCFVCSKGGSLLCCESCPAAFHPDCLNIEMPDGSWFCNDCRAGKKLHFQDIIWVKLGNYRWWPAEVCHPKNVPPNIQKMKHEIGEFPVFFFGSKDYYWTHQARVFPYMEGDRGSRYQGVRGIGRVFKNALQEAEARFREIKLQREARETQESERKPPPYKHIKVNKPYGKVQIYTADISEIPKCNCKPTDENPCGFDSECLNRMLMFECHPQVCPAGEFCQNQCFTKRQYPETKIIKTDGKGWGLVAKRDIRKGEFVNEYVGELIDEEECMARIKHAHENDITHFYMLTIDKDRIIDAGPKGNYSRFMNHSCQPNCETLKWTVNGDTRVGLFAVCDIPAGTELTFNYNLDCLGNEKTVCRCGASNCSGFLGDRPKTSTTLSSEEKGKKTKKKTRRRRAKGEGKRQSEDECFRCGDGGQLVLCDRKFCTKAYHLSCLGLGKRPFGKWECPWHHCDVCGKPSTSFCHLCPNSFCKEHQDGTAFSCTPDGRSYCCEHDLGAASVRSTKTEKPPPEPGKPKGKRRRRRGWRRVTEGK

[5] = biological target: Heat shock protein HSP 90-alpha (Homo sapiens, UniProt P07900); format: functional, organism-based
[6] = biological target: T4, Mannose-6-phosphate isomerase (Homo sapiens, UniProt P34949); test: human PMI inhibitors, high substrate, primary screen, biochemical, fluorescence intensity, high mannose 6-phosphate (AID 1220)
T4 sequence (P34949 whole entry): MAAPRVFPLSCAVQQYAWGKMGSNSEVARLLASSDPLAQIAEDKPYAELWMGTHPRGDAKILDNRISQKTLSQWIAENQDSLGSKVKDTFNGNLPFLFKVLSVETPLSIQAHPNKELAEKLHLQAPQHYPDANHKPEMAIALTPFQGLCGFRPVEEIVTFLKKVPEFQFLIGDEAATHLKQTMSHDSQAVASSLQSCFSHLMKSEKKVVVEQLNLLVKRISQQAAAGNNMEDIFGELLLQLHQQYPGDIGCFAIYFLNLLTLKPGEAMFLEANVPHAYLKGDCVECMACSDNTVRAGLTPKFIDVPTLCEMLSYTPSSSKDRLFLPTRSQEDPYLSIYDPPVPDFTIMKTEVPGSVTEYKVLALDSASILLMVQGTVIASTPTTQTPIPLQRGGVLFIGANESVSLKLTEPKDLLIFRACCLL

Vero = test: West Nile virus antiviral activity, cell-based, CPE readout (AID 1621); format: functional; details: Chlorocebus sabaeus
[7] = biological target: T5, Carboxy-terminal domain RNA polymerase II polypeptide A small phosphatase 1 (Homo sapiens, UniProt Q9GZU7); test: inhibitors of CTDSP1, concentration-response testing, biochemical assay, absorbance-based, actives from ultra-high-throughput screening (AID 540297); format: functional
T5 sequence (Q9GZU7 whole entry): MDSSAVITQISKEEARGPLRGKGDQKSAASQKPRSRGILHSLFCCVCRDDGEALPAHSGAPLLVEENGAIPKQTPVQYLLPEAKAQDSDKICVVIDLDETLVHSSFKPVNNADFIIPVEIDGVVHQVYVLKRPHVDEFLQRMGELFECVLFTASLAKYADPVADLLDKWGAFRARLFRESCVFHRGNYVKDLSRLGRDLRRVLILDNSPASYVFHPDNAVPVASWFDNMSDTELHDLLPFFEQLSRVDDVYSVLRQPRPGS

Estrogen receptor = biological target: T6, Estrogen receptor (Homo sapiens, UniProt P03372);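 note: potency for inhibiting coactivator peptide recruitment to the receptor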
T6 sequence (P03372 whole entry): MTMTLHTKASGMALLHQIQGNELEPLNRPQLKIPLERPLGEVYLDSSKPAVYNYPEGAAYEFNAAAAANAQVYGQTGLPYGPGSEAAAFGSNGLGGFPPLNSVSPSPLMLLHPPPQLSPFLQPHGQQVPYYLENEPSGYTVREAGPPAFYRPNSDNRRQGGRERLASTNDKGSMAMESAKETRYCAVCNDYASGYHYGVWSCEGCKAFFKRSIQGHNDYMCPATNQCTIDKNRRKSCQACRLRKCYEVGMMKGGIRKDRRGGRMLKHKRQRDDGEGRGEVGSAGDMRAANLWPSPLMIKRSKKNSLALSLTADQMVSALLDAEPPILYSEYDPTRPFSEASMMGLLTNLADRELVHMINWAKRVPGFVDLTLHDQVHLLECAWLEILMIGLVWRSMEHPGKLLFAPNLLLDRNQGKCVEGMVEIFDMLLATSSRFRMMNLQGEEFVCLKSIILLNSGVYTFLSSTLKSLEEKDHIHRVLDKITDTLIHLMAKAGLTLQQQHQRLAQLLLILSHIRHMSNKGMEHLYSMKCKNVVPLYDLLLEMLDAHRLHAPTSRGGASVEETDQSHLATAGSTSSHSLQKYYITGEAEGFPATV

[8] = biological target: G2/mitotic-specific cyclin-B1 (Homo sapiens, UniProt P14635); test: Counterscreen assay for inhibitors of Wee1 degradation: dose response cell-based assay to identify inhibitors of cyclin B degradation. [Related pubchem assays: 1410, 1321 ]; format: functional
Wee1-like protein kinase = Wee1-like protein kinase (Homo sapiens, UniProt P30291); test: Dose Response Cell-based Assay for Inhibitors of Wee1 Degradation. [Related pubchem assays: 1410, 1321 ]; format: functional
Insulin-degrading enzyme = Insulin-degrading enzyme (Homo sapiens, UniProt P14735); test: Dose Response: Fluorescence polarization-based cell-based high throughput dose response assay for inhibitors of insulin-degrading enzyme (IDE). [Related pubchem assays: 434962 (Primary screen (IDE inhibitors in singlicate)), 449730 (Counterscreen (Cytotoxicity in triplicate)), 435028 (Confirmation (IDE inhibitors in triplicate)), 434984 (Summary …; format: functional
[9] = Counterscreen for IDE inhibitors: Luminescence-based cell-based high throughput dose response assay to identify compounds that are cytotoxic to HEK cells. [Related pubchem assays: 434962 (Primary screen (IDE inhibitors in singlicate)), 449730 (Counterscreen (Cytotoxicity in triplicate)), 435028 (Confirmation (IDE inhibitors in triplicate)) …; format: functional; details: HEK293
[10] = biological target: T7, Polyadenylate-binding protein 1 (Homo sapiens, UniProt P11940); test: PABP1 MLLE–PAM2 interaction inhibitors, dose response, miRNA deadenylation inhibitor project, biochemical, fluorescence polarization, Cy5-PAM2 peptide, secondary (AID 602260); format: functional; details: read-out: IC50_Mean
Nonstructural protein 1 = Nonstructural protein 1 (Influenza A virus, UniProt Q194T2); format: functional, Influenza A virus (A/California/07/2009(H1N1))
[11] = biological target: T7, Polyadenylate-binding protein 1; test: PABP1 MLLE–PAM2 binding inhibitor potency, dose response, biochemical, fluorescence polarization, FITC-PAM2 peptide (AID 602259); format: functional; details: read-out: IC50_Mean

T7 sequence (P11940 whole entry): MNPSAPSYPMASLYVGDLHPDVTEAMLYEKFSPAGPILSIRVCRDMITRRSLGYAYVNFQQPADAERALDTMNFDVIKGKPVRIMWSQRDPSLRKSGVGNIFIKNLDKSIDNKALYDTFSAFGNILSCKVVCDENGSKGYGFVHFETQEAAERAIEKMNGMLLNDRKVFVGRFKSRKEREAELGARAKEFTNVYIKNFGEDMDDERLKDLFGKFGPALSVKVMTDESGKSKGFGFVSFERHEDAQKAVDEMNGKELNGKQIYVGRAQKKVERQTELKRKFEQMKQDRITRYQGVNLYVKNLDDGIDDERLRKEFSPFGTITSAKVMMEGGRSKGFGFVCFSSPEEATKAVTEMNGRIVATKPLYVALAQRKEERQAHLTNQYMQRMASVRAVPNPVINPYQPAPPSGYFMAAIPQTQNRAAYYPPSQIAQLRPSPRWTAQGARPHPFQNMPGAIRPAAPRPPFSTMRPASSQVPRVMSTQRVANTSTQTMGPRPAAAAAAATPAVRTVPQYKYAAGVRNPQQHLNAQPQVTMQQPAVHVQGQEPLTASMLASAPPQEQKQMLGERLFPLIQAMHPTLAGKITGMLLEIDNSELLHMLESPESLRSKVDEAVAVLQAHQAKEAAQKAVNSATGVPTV
Sequence of Insulin-degrading enzyme (P14735 whole entry): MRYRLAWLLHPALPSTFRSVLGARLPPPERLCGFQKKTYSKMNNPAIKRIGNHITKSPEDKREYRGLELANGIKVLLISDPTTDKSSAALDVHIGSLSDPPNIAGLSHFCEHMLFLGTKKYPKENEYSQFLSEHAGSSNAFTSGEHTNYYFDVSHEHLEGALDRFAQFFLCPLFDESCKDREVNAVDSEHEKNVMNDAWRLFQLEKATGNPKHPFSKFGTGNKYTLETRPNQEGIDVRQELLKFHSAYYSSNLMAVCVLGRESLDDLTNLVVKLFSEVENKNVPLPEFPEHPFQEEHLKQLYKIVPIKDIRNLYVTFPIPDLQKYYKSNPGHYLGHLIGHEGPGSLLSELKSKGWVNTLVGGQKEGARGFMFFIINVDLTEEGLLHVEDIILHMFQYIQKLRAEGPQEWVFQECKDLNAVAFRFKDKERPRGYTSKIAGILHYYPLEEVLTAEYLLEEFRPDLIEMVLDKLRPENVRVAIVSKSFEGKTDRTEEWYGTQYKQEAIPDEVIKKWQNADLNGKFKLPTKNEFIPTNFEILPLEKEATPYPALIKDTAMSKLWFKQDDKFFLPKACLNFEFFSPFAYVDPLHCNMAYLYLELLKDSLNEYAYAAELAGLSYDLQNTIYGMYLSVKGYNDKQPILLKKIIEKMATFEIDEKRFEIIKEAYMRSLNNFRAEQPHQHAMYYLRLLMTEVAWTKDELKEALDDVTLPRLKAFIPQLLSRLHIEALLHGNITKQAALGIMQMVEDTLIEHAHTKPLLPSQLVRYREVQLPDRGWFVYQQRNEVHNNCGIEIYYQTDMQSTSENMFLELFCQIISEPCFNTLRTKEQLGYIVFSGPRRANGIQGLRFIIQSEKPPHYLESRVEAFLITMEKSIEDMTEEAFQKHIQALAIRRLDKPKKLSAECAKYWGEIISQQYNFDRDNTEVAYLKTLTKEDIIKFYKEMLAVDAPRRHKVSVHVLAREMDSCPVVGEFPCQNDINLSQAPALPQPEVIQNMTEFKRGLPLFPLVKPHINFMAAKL
Sequence of G2/mitotic-specific cyclin-B1 (P14635 whole entry): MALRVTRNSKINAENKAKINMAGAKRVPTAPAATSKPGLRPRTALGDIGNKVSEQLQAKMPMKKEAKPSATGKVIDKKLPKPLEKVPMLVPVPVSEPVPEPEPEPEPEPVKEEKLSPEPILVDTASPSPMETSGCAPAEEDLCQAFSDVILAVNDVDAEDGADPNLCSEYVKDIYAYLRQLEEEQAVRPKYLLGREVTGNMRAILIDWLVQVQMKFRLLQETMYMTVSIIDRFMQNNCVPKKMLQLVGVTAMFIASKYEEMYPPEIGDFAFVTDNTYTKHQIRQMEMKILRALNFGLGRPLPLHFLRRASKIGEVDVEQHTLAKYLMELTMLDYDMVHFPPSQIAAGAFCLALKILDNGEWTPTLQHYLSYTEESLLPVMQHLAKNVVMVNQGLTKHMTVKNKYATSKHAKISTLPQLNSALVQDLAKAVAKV
Sequence of Nonstructural protein 1 (Q194T2 whole entry): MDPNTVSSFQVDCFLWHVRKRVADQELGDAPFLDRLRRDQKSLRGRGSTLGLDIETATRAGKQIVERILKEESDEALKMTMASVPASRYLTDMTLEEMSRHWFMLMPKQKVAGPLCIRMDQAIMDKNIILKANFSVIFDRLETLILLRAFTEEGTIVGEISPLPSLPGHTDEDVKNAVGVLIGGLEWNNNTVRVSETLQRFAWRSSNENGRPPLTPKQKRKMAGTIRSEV
Sequence of Wee1-like protein kinase (P30291 whole entry): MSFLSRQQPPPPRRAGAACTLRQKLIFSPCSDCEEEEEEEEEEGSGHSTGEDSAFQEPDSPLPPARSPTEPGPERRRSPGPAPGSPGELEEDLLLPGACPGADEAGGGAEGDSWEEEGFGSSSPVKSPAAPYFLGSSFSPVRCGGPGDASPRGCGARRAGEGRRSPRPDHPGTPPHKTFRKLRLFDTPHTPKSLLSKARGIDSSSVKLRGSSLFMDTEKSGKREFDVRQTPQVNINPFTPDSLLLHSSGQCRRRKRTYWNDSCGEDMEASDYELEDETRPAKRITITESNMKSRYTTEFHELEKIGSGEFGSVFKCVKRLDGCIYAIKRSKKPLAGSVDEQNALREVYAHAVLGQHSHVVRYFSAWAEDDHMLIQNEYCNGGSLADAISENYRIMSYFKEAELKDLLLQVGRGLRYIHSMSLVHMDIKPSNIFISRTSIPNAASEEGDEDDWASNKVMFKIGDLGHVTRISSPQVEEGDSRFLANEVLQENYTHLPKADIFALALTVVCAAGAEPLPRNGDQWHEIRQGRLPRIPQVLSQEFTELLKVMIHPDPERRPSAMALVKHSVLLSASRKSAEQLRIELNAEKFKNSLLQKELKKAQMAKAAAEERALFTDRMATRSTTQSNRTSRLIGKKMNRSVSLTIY
Sequence of Beta Lactamase (Q932Y6 whole entry): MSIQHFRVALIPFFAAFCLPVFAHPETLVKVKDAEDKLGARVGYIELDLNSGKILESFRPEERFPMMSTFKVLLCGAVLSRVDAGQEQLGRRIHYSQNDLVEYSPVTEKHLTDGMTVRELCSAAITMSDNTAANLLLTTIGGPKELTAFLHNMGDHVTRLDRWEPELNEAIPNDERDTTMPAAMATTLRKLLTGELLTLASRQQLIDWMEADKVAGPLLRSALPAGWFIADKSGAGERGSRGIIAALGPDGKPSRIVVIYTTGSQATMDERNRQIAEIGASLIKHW
Sequence of Genome polyprotein (P29990 2492-3391 limits assumed): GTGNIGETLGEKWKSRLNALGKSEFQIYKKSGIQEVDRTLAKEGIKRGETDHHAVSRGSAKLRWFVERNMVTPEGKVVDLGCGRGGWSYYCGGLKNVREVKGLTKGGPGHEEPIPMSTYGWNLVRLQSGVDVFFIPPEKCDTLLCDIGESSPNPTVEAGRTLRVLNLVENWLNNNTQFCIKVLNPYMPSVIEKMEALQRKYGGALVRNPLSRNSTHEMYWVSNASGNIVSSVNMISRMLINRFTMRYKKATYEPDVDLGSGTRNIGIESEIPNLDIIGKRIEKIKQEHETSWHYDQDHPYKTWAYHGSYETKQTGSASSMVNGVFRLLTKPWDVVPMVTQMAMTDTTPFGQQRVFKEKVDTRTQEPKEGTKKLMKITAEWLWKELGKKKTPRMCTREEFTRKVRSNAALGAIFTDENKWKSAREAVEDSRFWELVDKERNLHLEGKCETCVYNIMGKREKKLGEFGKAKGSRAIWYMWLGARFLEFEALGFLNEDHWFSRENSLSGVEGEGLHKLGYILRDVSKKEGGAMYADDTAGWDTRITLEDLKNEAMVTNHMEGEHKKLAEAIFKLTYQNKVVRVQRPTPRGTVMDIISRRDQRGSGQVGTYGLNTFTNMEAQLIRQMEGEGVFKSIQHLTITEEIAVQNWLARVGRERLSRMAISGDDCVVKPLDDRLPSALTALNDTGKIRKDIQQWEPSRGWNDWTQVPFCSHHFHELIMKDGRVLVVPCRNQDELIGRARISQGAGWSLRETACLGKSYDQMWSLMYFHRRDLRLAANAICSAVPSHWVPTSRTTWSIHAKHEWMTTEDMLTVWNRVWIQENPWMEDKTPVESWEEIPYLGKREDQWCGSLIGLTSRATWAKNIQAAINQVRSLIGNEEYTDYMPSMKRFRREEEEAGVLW

## c1ccc(-c2nc(NCCCN3CCCCC3)c3ccccc3n2)cc1
[1]
  IC50: 21.9 µM (inactive)
[2]
  IC50: 38.6 µM (inactive)

## O=C1C(Cl)=C(Oc2ccccc2)C(=O)c2ccccc21
CHO
  IC50: 0.738 µM (active)
[3]
  CC50: > 40 µM (active)
Beta Lactamase
  IC50: 10.2 µM (inactive)
Hexokinase HKDC1
  IC50: 4.47 µM (active)
Genome polyprotein
  IC50: 4.63 µM (active)
[4]
  AC50: 0.598 µM (active)
[5]
  AC50: 2.7 µM (active)

## CCCCc1c(C)nc2ccc(Br)cc2c1SC(N)N
[6]
  IC50: > 50 µM (not active)

## CN(C)CCNS(=O)(=O)c1ccc(N2CCN(c3ccc(F)cc3)CC2)c([N+](=O)[O-])c1
Vero
  IC50: 20 µM (active)

## Cc1ccc(C)c(CN2C(=O)c3ccccc3[S+]([O-])c3ccc(C(=O)NCCCN4CCCC4)cc32)c1 (stereo unspecified)
Vero
  IC50: 22 µM (active)

## Cc1sc2ncnc(SCC(=O)NC(=O)NCc3ccco3)c2c1C
[7]
  IC50: 10.6 µM (active)
Estrogen receptor
  IC50: 11.5 µM (active)

## O/C(=C\c1nc2ccccc2nc1O)c1cccs1
[8]
  EC50: > 49.7 µM (not active)
Wee1-like protein kinase
  EC50: > 49.7 µM (not active)

## C=CCN(C(=O)COC(=O)c1cc[n+]([O-])cc1)c1nc(-c2ccccc2)cs1
Insulin-degrading enzyme
  IC50: 4.84 µM (active)
[9]
  IC50: 50.6 µM (not active)

## O=C(O)CNC(=O)CC1SC(NN=C2CSC(=O)N2)=NC1=O (stereo unspecified)
[10]
  IC50: > 66 µM (inactive)
Nonstructural protein 1
  IC50: 7.74 µM (active)
[6]
  IC50: 46.3 µM (active)
[11]
  IC50: > 66 µM (inactive)

## Clc1ccccc1-c1cc(NCCCN2CCCCC2)c2ccccc2n1
[1]
  IC50: 11.6 µM (active)
[2]
  IC50: 32.5 µM (inactive)

## Nc1c2c(nc3ccn(-c4ccccc4)c(=O)c13)CCCCC2
Insulin-degrading enzyme
  IC50: > 55.9 µM (not active)
[9]
  IC50: 22.3 µM (not active)
